In test [1] the target is T1, BRD4 (BDI_K57-E168) (Homo sapiens, UniProt O60885).
T1 construct: BD1: amino acids K57-E168; made in house
The test can be described thus: TR-FRET bromodomain binding assay, BRD4 first bromodomain. Conditions: His-tagged BD1, Alexa647-labeled probe 100 nM; Ki calculated from IC50. The essentials: (§1)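 Read-out: TR-FRET ratio after 1 h at room temperature, normalized to controls and fitted for IC50, then converted to Ki. Reaction held 8 nM His-tagged domain, 1 nM Eu-anti-His antibody, Alexa647 probe (BDI 100 nM; BDII 30 nM) and test compound in 2% DMSO.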

Test [2] addresses T2, BRD4 (BDII_E352-M457) (Homo sapiens, UniProt O60885).
T2 construct: made in house
Kind of test: TR-FRET bromodomain binding assay, BRD4 second bromodomain. The following applies: His-tagged BD2, Alexa647-labeled probe 30 nM; Ki calculated from IC50. The essentials:
as §1

Test [3] concerns breast cancer cell line MX-1. Kind of test: MX-1 cell line proliferation assay. Conditions: Homo sapiens, MX1, 72 h, MX-1 cells, 3-day proliferation assay, Cell Titer Glo; read-out: Cellular proliferation: EC50. Format: cell-based. In short, it runs like this: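 Final compound concentrations spanned 0.0001 to 3 μM, added to 5000 cells/well plated the previous night in RPMI 1640 plus 10% FBS at 37 °C.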

Bounds are passed on as bounds.

Consider 7 molecules from patent publication US9493411B2 (AbbVie Inc., priority 2013, dated 2016).

For `Cc1[nH]c(-c2ccccc2NC[C@H]2CC[C@@H](NC(=O)OC(C)(C)C)CC2)cc1C(N)=O` [Example 45, tert-butyl [cis-4-({[2-(4-carbamoyl-5-methyl-1H-pyrrol-2-yl)phenyl]amino}methyl)cyclohexyl]carbamate], the Ki – broadly, a dissociation constant, usually derived from enzyme kinetics or from competition with a known ligand – was 434 nM in test [1] and 9290 nM in test [2]. The EC50 in test [3] worked out at 5440 nM.
For `Cc1[nH]c(-c2ccccc2NS(=O)(=O)Cc2ccc(Cl)cc2)cc1C(N)=O` [Example 85, 5-(2-{[(4-chlorobenzyl)sulfonyl]amino}phenyl)-2-methyl-1H-pyrrole-3-carboxamide], in that order: 1850 nM, 13200 nM and greater than 3000 nM.
Turning to `Cc1[nH]c(-c2ccccc2Oc2ccccc2F)cc1C(N)=O` [Example 117, 5-[2-(2-fluorophenoxy)phenyl]-2-methyl-1H-pyrrole-3-carboxamide], the Ki in test [1] is 391 nM; in test [2], 725 nM. Further, the EC50 in test [3] stood at 1350 nM.
For `Cc1[nH]c(-c2ccccc2NC2CCSCC2)cc1C(N)=O` [Example 68, 2-methyl-5-[2-(tetrahydro-2H-thiopyran-4-ylamino)phenyl]-1H-pyrrole-3-carboxamide], in that order: 151 nM, 2590 nM and 1130 nM.
The corresponding values for `Cc1[nH]c(-c2ccccc2NC2CCCCC2)cc1C(N)=O` [Example 62, 5-[2-(cyclohexylamino)phenyl]-2-methyl-1H-pyrrole-3-carboxamide] are 197 nM, 1240 nM and 520 nM.
Take `Cc1[nH]c(-c2ccccc2NC[C@H]2CC[C@@H](N)CC2)cc1C(N)=O` [Example 48, 5-(2-{[(cis-4-aminocyclohexyl)methyl]amino}phenyl)-2-methyl-1H-pyrrole-3-carboxamide]: the values for the Ki in test [1] and in test [2] were 224 nM and 6220 nM, respectively. Also, in test [3], the EC50 was 9580 nM.
For `Cc1[nH]c(-c2ccccc2NCCC2CCNCC2)cc1C(N)=O` [Example 47, 2-methyl-5-(2-{[2-(piperidin-4-yl)ethyl]amino}phenyl)-1H-pyrrole-3-carboxamide], the results for the Ki in test [1] and in test [2] were 498 nM and 7830 nM, respectively. For the same molecule, in test [3], the EC50 was greater than 10000 nM.
